Legend:
[1] = test system: reserpine-induced mice migraine; assay: Reserpine-induced mice migraine; format: in vivo, ICR mice; details: for Blood coagulation time: reserpine 0.2 mg/kg sc mice, 1 h after final administration; for brain tissue 5-HT / Times of tail suspension (struggling times within 2 min): reserpine mice; for Times of tail suspension (struggling times within 2 min): 9th day; for blood coagulation time, in words / level of 5-HT in the brain tissue, in words / times of the tail suspension activity, in words: compared with the model group
Description: The mice in the blank control group and model group were administered intragastrically via a solvent from the 5th day after modeling, and the rest groups of mice were respectively administered corresponding medicaments and doses for intragastric administration for 10 consecutive days; 1 h later after the final administration, the mice were weighed; blood was taken at inner canthus to detect blood coagulation time; whole blood was taken, and cerebrum was taken on an ice and preserved at -20° C. for the subsequent experiment.
Behavioral test: tail suspension activity was performed; the position 1 cm away from the tail of the mice was glued by an adhesive tape on the 9th day of the test, and the adhesive tape was penetrated by a steel needle, and hung in a dark box such that the mice were hung upside down; then the mice struggling times (total number of overturning from hanging) within 2 min were observed.
The mice were weighed 1 h later after the final administration; blood of inner canthus was taken via a capillary to detect the blood coagulation time.
Blood was taken to detect the content of 5-HT in serum via high-performance liquid chromatography. Cerebrum was taken on an ice and precooled and cleaned slightly with 0.5% sodium carboxymethylcellulose, and then sucked dry with a filter paper, and placed into a cryogenic tube, and preserved at -20° C. for further use, then the content of 5-HT in brain tissues was detected by high performance liquid chromatography.
5-HT test method: a sample was precipitated with 10% perchloric acid solution according to 1:1, and then centrifuged to take supernatant for test. Chromatographic conditions: the chromatographic column is a SHIMADZU VP-ODS C18 column (250*4.6 mm, 5 um), the mobile phase is a methanol-0.01 mol/L potassium acetate buffer solution (10:90, V/V, PH is adjusted to 4.00 with 0.2 mol/L citric acid) for gradient elution; the column temperature is 25° C., flow rate is 1.00 ml/min and test wavelength is 275 nm.

[2] = biological target: T1, recombinant human protein MAGL (Homo sapiens, UniProt Q99685); assay: MAGL enzyme analysis (Cayman MAGL inhibitor screening kit); format: biochemical; details: 4-nitrophenylacetic acid substrate, absorbance 410 nm, read-out: MAGLXIC50
T1 construct: purchased Cayman
T1 sequence (Q99685 1-303): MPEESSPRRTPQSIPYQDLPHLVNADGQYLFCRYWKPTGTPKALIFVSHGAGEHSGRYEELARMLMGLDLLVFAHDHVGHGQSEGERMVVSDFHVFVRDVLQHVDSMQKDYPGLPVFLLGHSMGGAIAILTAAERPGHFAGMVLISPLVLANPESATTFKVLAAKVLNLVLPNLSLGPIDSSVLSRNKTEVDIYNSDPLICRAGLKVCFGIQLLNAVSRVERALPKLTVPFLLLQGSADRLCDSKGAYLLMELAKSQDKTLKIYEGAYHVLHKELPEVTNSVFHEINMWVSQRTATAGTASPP
Description: 150 µL 1Xassay buffer, 10 µL recombinant human protein MAGL and 10 µL different concentrations of MAGL inhibitors (six points within 1 nM to 1000 nM) were added to per well of a 96-well plate. JZL195 (a positive control inhibitor) served as a positive control well, after incubation for 5 min at room temperature, per well was added with 10 µL MAGL substrate, and […] were vibrated for 10 s and placed for 10 min at room temperature, then an absorbance was detected at 410 nm. […] Graphad Prism 5.0 was taken to calculate IC50 curves fitting each inhibitor.

[3] = test system: mice tail suspension test; assay: Mice tail suspension test; format: in vivo, ICR mice; details: final 4 min of 6 min, 5 mg/kg intragastric once per day 10 d
Description: (§1) Male ICR mice having a body weight of 18-22 g. The animals were active on a schedule of normal illumination for 12 h and in the dark for 12 h. Environmental temperature and relative humidity were relatively kept for 22±1° C. and 55±5%.
(§2) There were 7 groups of laboratory mice, 10 pieces each group, set as a control group (normal saline), a positive control group (fluoxetine hydrochloride capsule, 5 mg/kg), 5 MAGLZ-II series of administration treatment groups: MAGLZ-II-06, MAGLZ-II-07, MAGLZ-II-11, MAGLZ-II-17 and MAGLZ-II-18, respectively, with an administration concentration of 5 mg/kg.
(§3) All medicaments were used once per day via intragastric administration with a dose of 20 mL/kg (body weight), lasting for 10 d. 1 h later after the final administration, the detection of animal behaviors was started.
The tail suspension test (TST) was performed by the method established by Porsolt, et al. (Porsolt R D, Le Pichon M, Jalfre M. Depression: a new animal model sensitive to antidepressant treatments[J]. Nature, 1977, 266(5604):730-732). Mice were respectively suspended on the tail portions with tail suspension clamps at a distance of 10 mm away from the tail portion of the box (250 mm×250 mm×300 mm) and a distance of 5 cm where the head of each mouse was away from the bottom portion. Noise was tested in a dark room having minimum background, and each mouse was suspended for 6 min, and an immobility time was recorded at intervals in the final 4 min. Judgment standard: the mice stopped struggling and kept still completely.
(§4) All data are shown by x̅±SD, and the comparison among groups is analyzed by one-way variance.

[4] = Tissue distribution test in mice; format: in vivo; parameters: content in the brain (tissue distribution): unit not given here; details: 16 mg/kg subcutaneous injection
[5] = test system: mice forced swimming test; assay: Mice forced swimming test; format: in vivo, ICR mice; details: forced swimming, 6 min; 5 mg/kg intragastric once per day 10 d, 1 h after final administration
Description: as §1, §2, §3
Mice forced swimming test was performed according to the method established by Porsolt (Porsolt R D. Behavioural despair in mice: A primary screening test for antidepressants[J]. Arch. Int. Pharmacolodyn. 1977, 229). […] Each mouse was judged as still when stopped struggling, kept suspension in water and only made necessary movement to keep the head above the water.
as §4

| Structure (SMILES) | Blood coagulation time ([1]; high dose 30 mg/kg ig 10 d) | Blood coagulation time ([1]; low dose 7.5 mg/kg ig 10 d) | Blood coagulation time ([1]; middle dose 15 mg/kg ig 10 d) | brain tissue 5-HT ([1]; high dose 30 mg/kg ig 10 d) | Times of tail suspension (struggling times within 2 min) ([1]; high dose 30 mg/kg ig) | brain tissue 5-HT ([1]; low dose 7.5 mg/kg ig 10 d) | Times of tail suspension (struggling times within 2 min) ([1]; low dose 7.5 mg/kg ig) | brain tissue 5-HT ([1]; middle dose 15 mg/kg ig 10 d) | Times of tail suspension (struggling times within 2 min) ([1]; middle dose 15 mg/kg ig) | blood coagulation time, in words [1] | level of 5-HT in the brain tissue, in words [1] | times of the tail suspension activity, in words [1] | IC50 [2] | Accumulated immobility time [3] | content in the brain, ranking of the test substances [4] | content in the brain (tissue distribution) ([4]; 1.0 h) | content in the brain (tissue distribution) ([4]; 2.0 h) | content in the brain (tissue distribution) ([4]; 5.0 h) | Accumulated immobility time [5] |
| --- | --- | --- | --- | --- | --- | --- | --- | --- | --- | --- | --- | --- | --- | --- | --- | --- | --- | --- | --- |
| O=C(Nc1ccc(Cl)cc1)C1CCN(C(=O)c2ccc(O)cc2)CC1 [MAGLZ-II-10] | 148.00±30.23 S | 113.25±23.31 S | 125.25±19.31 S | 0.90 ± 0.21 nmol/g | 11.63±1.85 | 0.85 ± 0.20 nmol/g | 9.25±2.66 | 1.05 ± 0.14 nmol/g | 10.63±1.19 |  |  |  |  |  |  |  |  |  |  |
| O=C(Nc1cccc(Cl)c1)C1CCN(C(=O)c2cc(O)ccc2F)CC1 [MAGLZ-II-11 (a)] | 300.63±45.26 S | 136.75±33.22 S | 256.88±42.93 S | 2.97 ± 0.28 nmol/g | 20.75±4.98 | 1.35 ± 0.38 nmol/g | 16.13±3.68 | 1.86 ± 0.29 nmol/g | 19.88 ± 4.09 | significantly extend | significantly increase | significantly increase | 2150 nM |  |  |  |  |  |  |
| O=C(Nc1cccc(Cl)c1)C1CCN(C(=O)c2cccc(O)c2)CC1 [MAGLZ-II-11] | 336.88±33.09 S | 222.5±35.52 S | 326.88±45.9 S | 3.63 ± 5.34 nmol/g | 23.00±3.59 | 1.54 ± 0.27 nmol/g | 14.13±1.89 | 2.10 ± 0.22 nmol/g | 16.13±1.73 | significantly extend | significantly increase | significantly increase | 96 nM | 72.81±23.49 S | lowest | 0 | 1.6 | 1.3 | 73.57±27.28 S |
| O=C(Nc1cccc(Cl)c1)C1CCN(C(=O)c2cc3cc(F)ccc3[nH]2)CC1 [MAGLZ-II-18 (a)] | 252.25±30.99 S | 137.25±67.22 S | 191.50±63.66 S | 2.76 ± 0.34 nmol/g | 18.50±2.00 | 1.21 ± 0.17 nmol/g | 11.38±2.67 | 1.65 ± 0.18 nmol/g | 13.38±2.67 | significantly extend | significantly increase | significantly increase | 2150 nM |  |  |  |  |  |  |
| Cn1c(C(=O)N2CCC(C(=O)Nc3cccc(Cl)c3)CC2)cc2ccccc21 [MAGLZ-II-18 (c)] | 237.13±28.75 S | 148.00±30.23 S | 198.63±21.36 S | 1.79 ± 0.32 nmol/g | 15.88±3.8 | 1.14 ± 0.22 nmol/g | 10.13±2.3 | 1.37 ± 0.34 nmol/g | 12.75±2.6 | significantly extend | significantly increase | significantly increase | 2.6 nM |  |  |  |  |  |  |
| O=C(Nc1cccc(Cl)c1)C1CCN(C(=O)c2cc3ccccc3[nH]2)CC1 [MAGLZ-II-18] | 241.5 ± 41.63 S | 186.5±51.71 S | 212.63±46.02 S | 2.08 ± 0.59 nmol/g | 16.51±4.38 | 1.13 ± 0.45 nmol/g | 11.88±4.02 | 1.54 ± 0.54 nmol/g | 13.75±4.56 | significantly extend | significantly increase | significantly increase | 670 nM | 79.68±25.72 S |  |  |  |  | 81.71±38.12 S |

— US20230090255A1, “MAGL INHIBITOR, PREPARATION METHOD THEREFOR AND USE THEREOF” (LUNAN PHARMACEUTICAL GROUP CORPORATION, priority 2019, published 2023)
